Values of other authors as cited in patent US20140213664A1, “PROCESSES, PRODUCTS AND METHODOLOGIES FOR MAKING AND USING NOVEL BIOADVANTAGED SWEETENERS” (priority 2013, published 2014).

Tests used:
[1] = system: STZ-induced diabetic rats
[2] = injected hypodermically

Structure (SMILES) | HDL-cholesterol [1] | antihyperglycemic effect [1] | total cholesterol and triglyceride levels [1] | glycosuria [2]
O=CC=Cc1ccccc1 [Cinnamaldehyde] | increasing | significant antihyperglycemic effect | lowering | –
O=C(CCc1ccc(O)cc1)c1c(O)cc(O)cc1O[C@@H]1O[C@H](CO)[C@@H](O)[C@H](O)[C@H]1O [Phlorizin] | – | – | – | produces glycosuria
